The subject of the test is 349418-098-R tumor spheroid viability. Kind of test: Anticancer human tumor 349418-098-R patient-derived lung adenocarcinoma cell line growth inhibition. The following applies: spheroids with HUVEC and MSC; for viability, T/C: stronger effect = lower value. The gist of the method:
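Complex tumor spheroids combined malignant cells with endothelial cells and mesenchymal stem cells. DNA-damaging drugs and DNA repair inhibitors were tested alone and in combination, at half-log dilutions down from clinical Cmax (top 10 microM if Cmax unknown), 0.25% DMSO final.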

“And” between values parts separate entries of the source, which are not always exact repeats. Equal values may be shown once. Some results are limits rather than exact numbers.

Here are results for four compounds from PubChem BioAssay AID1845197 (Molecular Pharmacology Branch, DTP, NCI, 2023).
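Note: spheroids exposed to compound for 7 days before measurement.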
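Throughout, for viability, T/C: percent of vehicle control viability with 100% = DMSO-treated spheroids.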

`CNCc1ccc(-c2cc(-c3nc(-c4ccc(S(=O)(=O)C(C)C)cc4)cnc3N)on2)cc1` + Cn1nnc2c(C(N)=O)ncn2c1=O: the IC50 (usually the concentration needed to halve the response being measured) runs as follows: (curve of first compound, second compound 1 µM) 275 nM; (curve of first compound, second compound 3.16 µM) 382 nM; (curve of first compound, second compound 10 µM) 401 nM; (curve of first compound, second compound 31.6 µM) 260 nM; (curve of first compound, second compound 100 µM) 214 nM. The viability, T/C (usually the result in the treated group divided by that in the control group, in per cent) by setting is: (second compound 1 µM, first compound 0.00949 µM) 103%; (second compound 1 µM, first compound 0.03 µM) 100%; (second compound 1 µM, first compound 0.0949 µM) 99.6%; (second compound 1 µM, first compound 0.3 µM) 45.4%; (second compound 1 µM, first compound 0.949 µM) 10.3%; (second compound 1 µM, first compound 3 µM) 1.84%. Moreover, the viability, T/C runs as follows: (second compound 3.16 µM, first compound 0.00949 µM) 108%; (second compound 3.16 µM, first compound 0.03 µM) 101%; (second compound 3.16 µM, first compound 0.0949 µM) 102%; (second compound 3.16 µM, first compound 0.3 µM) 61.2%; (second compound 3.16 µM, first compound 0.949 µM) 7.59%; (second compound 3.16 µM, first compound 3 µM) 1.85%. Further, the viability, T/C is, setting by setting: (second compound 10 µM, first compound 0.00949 µM) 104%; (second compound 10 µM, first compound 0.03 µM) 103%; (second compound 10 µM, first compound 0.0949 µM) 97.9%; (second compound 10 µM, first compound 0.3 µM) 64.5%; (second compound 10 µM, first compound 0.949 µM) 7.44%; (second compound 10 µM, first compound 3 µM) 1.34%. Also, the viability, T/C is, setting by setting: (second compound 31.6 µM, first compound 0.00949 µM) 104%; (second compound 31.6 µM, first compound 0.03 µM) 102%; (second compound 31.6 µM, first compound 0.0949 µM) 99.9%; (second compound 31.6 µM, first compound 0.3 µM) 42.7%; (second compound 31.6 µM, first compound 0.949 µM) 5.84%; (second compound 31.6 µM, first compound 3 µM) 0.96%. Further, the viability, T/C runs as follows: (second compound 100 µM, first compound 0.00949 µM) 104%; (second compound 100 µM, first compound 0.03 µM) 106%; (second compound 100 µM, first compound 0.0949 µM) 105%; (second compound 100 µM, first compound 0.3 µM) 27.1%; (second compound 100 µM, first compound 0.949 µM) 4.72%; (second compound 100 µM, first compound 3 µM) 0.67%.

As to `COc1cc(C)[nH]c(=O)c1CN1CCc2c(Cl)cc(C(OC)C3COC3)c(Cl)c2C1=O` (centres undefined), the viability, T/C by setting is: (compound 0.0316 µM) 113% and 98.1% and 118%; (compound 0.1 µM) 115% and 96.7% and 122%; (compound 0.316 µM) 108% and 91.9% and 112%; (compound 1 µM) 104% and 92% and 112%; (compound 3.16 µM) 101% and 79.7% and 118%; (compound 10 µM) 96.4% and 83.6% and 103%. Besides, the IC50 (curve of compound) was > 10000 nM.

`Cn1ncnc1[C@H]1c2n[nH]c(=O)c3cc(F)cc(c23)N[C@@H]1c1ccc(F)cc1` + CC[C@@]1(O)C(=O)OCc2c1cc1n(c2=O)Cc2cc3c(CN(C)C)c(O)ccc3nc2-1: the IC50 was 1620 nM (curve of first compound, second compound 0.003 µM); 1100 nM (curve of first compound, second compound 0.00949 µM); 53.9 nM (curve of first compound, second compound 0.03 µM); < 9.49 nM (curve of first compound, second compound 0.0949 µM); < 9.49 nM (curve of first compound, second compound 0.3 µM). Further, the viability, T/C is 93.6% (second compound 0.003 µM, first compound 0.00949 µM); 97.7% (second compound 0.003 µM, first compound 0.03 µM); 91.4% (second compound 0.003 µM, first compound 0.0949 µM); 96.6% (second compound 0.003 µM, first compound 0.3 µM); 83.3% (second compound 0.003 µM, first compound 0.949 µM); 11.1% (second compound 0.003 µM, first compound 3 µM). Moreover, the viability, T/C is 100% (second compound 0.00949 µM, first compound 0.00949 µM); 97.6% (second compound 0.00949 µM, first compound 0.03 µM); 90.8% (second compound 0.00949 µM, first compound 0.0949 µM); 92.6% (second compound 0.00949 µM, first compound 0.3 µM); 56.1% (second compound 0.00949 µM, first compound 0.949 µM); 7.96% (second compound 0.00949 µM, first compound 3 µM). The viability, T/C was 63.4% (second compound 0.03 µM, first compound 0.00949 µM); 59.5% (second compound 0.03 µM, first compound 0.03 µM); 41.3% (second compound 0.03 µM, first compound 0.0949 µM); 31.1% (second compound 0.03 µM, first compound 0.3 µM); 18.3% (second compound 0.03 µM, first compound 0.949 µM); 2.95% (second compound 0.03 µM, first compound 3 µM). Moreover, the viability, T/C is, setting by setting: (second compound 0.0949 µM, first compound 0.00949 µM) 13.1%; (second compound 0.0949 µM, first compound 0.03 µM) 9.39%; (second compound 0.0949 µM, first compound 0.0949 µM) 12.7%; (second compound 0.0949 µM, first compound 0.3 µM) 8.01%; (second compound 0.0949 µM, first compound 0.949 µM) 5.35%; (second compound 0.0949 µM, first compound 3 µM) 1.86%. Also, the viability, T/C reads like this: (second compound 0.3 µM, first compound 0.00949 µM) 3.53%; (second compound 0.3 µM, first compound 0.03 µM) 3.12%; (second compound 0.3 µM, first compound 0.0949 µM) 3.64%; (second compound 0.3 µM, first compound 0.3 µM) 3.26%; (second compound 0.3 µM, first compound 0.949 µM) 2.39%; (second compound 0.3 µM, first compound 3 µM) 1.17%.

`CC(C)n1c(=O)n(C)c2cnc3cc(F)c(-c4ccc(OCCCN5CCCCC5)nc4)cc3c21`: the viability, T/C runs as follows: (compound 0.0316 µM) 89% and 110% (2×); (compound 0.1 µM) 97.8% and 97.9% and 106%; (compound 0.316 µM) 94.4% and 93.9% and 108%; (compound 1 µM) 105% and 97.3% and 108%; (compound 3.16 µM) 109% and 102% and 105%; (compound 10 µM) 56.8% and 48.3% and 85.3%. Further, the IC50 (curve of compound) was > 10000 nM and 9630 nM.
